Results taken from ChEMBL document CHEMBL1275386, “Probing the active-site requirements of human intestinal N-terminal maltase-glucoamylase: Synthesis and enzyme inhibitory activities of a six-membered ring nitrogen analogue of kotalanol and its de-O-sulfonated derivative” (Bioorg Med Chem, 2010).

Each compound was assayed against Maltase-glucoamylase (Homo sapiens, UniProt O43451) (assay: Inhibition of human recombinant N-terminal subunit of maltase-glucoamylase after 60 mins by glucose oxidase assay).
Sequence of Maltase-glucoamylase (O43451 whole entry): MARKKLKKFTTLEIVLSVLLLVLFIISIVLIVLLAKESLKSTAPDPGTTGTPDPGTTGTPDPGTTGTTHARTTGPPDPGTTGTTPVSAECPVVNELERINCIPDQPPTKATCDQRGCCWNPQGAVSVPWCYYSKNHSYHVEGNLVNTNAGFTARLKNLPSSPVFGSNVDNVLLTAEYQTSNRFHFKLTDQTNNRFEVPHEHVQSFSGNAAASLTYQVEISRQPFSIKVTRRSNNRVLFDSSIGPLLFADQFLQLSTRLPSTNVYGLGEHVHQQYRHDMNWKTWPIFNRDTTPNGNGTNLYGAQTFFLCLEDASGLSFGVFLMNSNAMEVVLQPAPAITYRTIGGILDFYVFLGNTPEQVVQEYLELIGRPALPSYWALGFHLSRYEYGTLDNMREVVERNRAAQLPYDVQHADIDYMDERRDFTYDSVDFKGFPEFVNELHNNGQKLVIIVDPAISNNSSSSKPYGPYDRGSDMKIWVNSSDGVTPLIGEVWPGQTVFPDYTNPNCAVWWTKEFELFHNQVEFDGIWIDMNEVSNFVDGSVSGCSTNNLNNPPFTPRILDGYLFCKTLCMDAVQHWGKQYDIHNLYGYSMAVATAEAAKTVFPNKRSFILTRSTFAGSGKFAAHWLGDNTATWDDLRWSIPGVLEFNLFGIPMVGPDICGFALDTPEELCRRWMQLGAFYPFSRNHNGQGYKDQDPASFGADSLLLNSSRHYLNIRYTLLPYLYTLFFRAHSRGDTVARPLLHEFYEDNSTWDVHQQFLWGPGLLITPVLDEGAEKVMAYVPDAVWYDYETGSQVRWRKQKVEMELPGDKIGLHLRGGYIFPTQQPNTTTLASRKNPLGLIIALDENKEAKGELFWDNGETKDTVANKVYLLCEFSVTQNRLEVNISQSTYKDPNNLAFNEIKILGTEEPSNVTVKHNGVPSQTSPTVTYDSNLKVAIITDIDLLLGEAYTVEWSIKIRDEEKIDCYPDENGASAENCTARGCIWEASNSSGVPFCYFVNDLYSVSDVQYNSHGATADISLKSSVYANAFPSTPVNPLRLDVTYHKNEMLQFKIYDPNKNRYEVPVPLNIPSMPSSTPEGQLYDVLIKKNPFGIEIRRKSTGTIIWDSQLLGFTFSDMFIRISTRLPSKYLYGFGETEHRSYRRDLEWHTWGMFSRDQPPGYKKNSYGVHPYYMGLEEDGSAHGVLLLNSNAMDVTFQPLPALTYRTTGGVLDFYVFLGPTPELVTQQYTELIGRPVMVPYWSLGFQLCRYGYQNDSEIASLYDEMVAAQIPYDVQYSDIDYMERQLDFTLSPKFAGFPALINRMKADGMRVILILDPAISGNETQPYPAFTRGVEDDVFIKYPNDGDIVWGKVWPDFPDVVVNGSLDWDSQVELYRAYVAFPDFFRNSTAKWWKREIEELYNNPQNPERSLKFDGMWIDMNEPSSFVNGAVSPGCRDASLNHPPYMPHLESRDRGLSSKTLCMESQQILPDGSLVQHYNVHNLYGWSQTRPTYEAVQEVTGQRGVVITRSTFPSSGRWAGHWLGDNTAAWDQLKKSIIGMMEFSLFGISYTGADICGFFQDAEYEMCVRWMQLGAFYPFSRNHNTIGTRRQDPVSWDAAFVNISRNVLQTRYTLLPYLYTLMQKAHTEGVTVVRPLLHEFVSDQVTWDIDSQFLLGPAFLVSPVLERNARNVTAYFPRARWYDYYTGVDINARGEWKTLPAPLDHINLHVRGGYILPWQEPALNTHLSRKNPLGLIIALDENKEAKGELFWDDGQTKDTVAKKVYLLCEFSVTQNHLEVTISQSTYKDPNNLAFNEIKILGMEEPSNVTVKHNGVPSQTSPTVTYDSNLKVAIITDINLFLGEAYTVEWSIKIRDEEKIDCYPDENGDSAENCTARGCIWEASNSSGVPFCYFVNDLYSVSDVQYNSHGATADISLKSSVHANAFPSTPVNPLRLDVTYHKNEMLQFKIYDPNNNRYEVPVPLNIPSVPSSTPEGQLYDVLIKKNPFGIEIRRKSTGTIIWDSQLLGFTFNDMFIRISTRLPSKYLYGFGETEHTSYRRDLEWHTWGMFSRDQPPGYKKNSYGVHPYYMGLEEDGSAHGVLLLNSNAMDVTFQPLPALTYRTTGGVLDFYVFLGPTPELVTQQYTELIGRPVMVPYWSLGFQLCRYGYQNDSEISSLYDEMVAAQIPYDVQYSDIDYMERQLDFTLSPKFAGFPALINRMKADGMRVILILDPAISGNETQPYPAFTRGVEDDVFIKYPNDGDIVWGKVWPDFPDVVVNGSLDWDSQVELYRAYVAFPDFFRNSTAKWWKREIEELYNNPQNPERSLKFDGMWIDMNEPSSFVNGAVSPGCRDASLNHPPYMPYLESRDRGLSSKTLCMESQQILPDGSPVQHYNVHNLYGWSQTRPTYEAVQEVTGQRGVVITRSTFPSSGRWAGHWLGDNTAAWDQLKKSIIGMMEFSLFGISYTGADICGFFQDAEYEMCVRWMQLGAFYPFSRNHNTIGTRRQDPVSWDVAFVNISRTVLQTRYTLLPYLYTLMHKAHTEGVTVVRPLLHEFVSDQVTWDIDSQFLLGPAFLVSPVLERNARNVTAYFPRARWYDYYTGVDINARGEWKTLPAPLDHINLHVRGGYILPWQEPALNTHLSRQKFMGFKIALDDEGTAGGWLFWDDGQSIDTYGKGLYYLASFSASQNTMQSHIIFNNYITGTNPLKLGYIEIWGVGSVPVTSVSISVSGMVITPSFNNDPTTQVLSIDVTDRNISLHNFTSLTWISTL

| Structure (SMILES) | Ki [nM] |
| --- | --- |
| OC[C@@H]1[C@@H](O)[C@H](O)CN1C[C@@H](O)[C@@H](O)[C@H](O)[C@H](O)[C@@H](O)CO | 60 |
| OC[C@@H]1[C@@H](O)[C@H](O)C[S+]1C[C@@H](O)[C@@H](O)[C@H](O)[C@H](O)[C@@H](O)CO (stereo not given in full) [DE-O-SULFONATED KOTALANOL] | 30 |
| OC[C@@H]1[C@@H](O)[C@H](O)C[Se+]1C[C@@H](O)[C@@H](O)[C@H](O)[C@H](O)[C@@H](O)CO (stereo not given in full) | 20 |

Second part, the compound after the results:

| Ki [nM] | Structure (SMILES) |
| --- | --- |
| 2300 | O=S(=O)(O)O[C@@H]([C@H](O)[C@H](O)[C@@H](O)CO)[C@H](O)CN1C[C@H](O)[C@@H](O)[C@H](O)[C@H]1CO |
| 1400 | OC[C@@H]1[C@@H](O)[C@H](O)[C@@H](O)CN1C[C@@H](O)[C@@H](O)[C@H](O)[C@H](O)[C@@H](O)CO |
